The nature of data set [1]: Hydrophobicity: retention time during reverse phase HPLC. It counts as physicochemical. As to conditions: Acquity CSH C18; pH 7.2 buffer/CH3CN gradient; 40° C. The source says:
The retention time (RT) during reverse phase HPLC was taken as a measure of hydrophobicity of an N-terminally modified peptide or oligopeptide of the invention, where the connection is: The longer the RT, the more hydrophobic N-terminally modified peptide or oligopeptide. The following running conditions were applied during HPLC analysis:
Buffer B: 70% (v/v) aq. CH3CN

In data set [2] the test system is Chymotrypsin. The data set is described as follows: Inhibition of enzymatic degradation of a model GLP-1 (FRET substrate) by chymotrypsin. The class given is biochemical. As to conditions: for Slope of the initial increase in fluorescence obtained during incubation with 0.001 mg/ml Chymotrypsin: compound 1 mM; for EC50: read-out: EC50 Chymotrypsin (0.001 mg/ml), 0.001 mg/ml chymotrypsin, 37° C., ± standard error if at least 3 measurements. The procedure, abridged:
(§1)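 MCA/DNP-labelled model GLP-1 FRET substrate (10 μl of 100 μM stock) in Dulbecco's PBS at 37° C with varying acylated peptide; fluorescence (ex 320/em 405 nm) read every minute for ≥30 min. Initial slopes from linear regression, duplicates averaged; EC50 by sigmoidal logistic fit of slope vs concentration.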

Data set [3] can be described thus: Stability of N-terminally acylated peptides or oligopeptides in GI juice. It counts as in vitro ADME. As to conditions: degradation of the compound itself in jejunum extract from rat, read-out: t 1/2 in rat GI juice. The method, then: 96 well plates were coated by incubating with 0.4% Bovine serum albumin (BSA) solution for minimum of 60 min. To each well, 210 μl of buffer (Hank's balanced salt solution-4-(2-hydroxyethyl)-1-piperazineethanesulfonic acid (HBSS-HEPES) buffer) with 0.005% Tween 20 and 0.001% BSA, pH 6.5 precipitated with 3 vol. cold 96% ethanol (EtOH) w. 1% TFA), 30 μl of a substrate (100 μM insulin analogue or GLP-1 analogue in buffer) and 30 μl of N-terminally acylated peptide or oligopeptide of the invention (10 mM) were added. The plates were pre-incubated (before adding GI juice) for 60 min at 37° C. After addition of 30 μl of GI juice (10-times diluted in buffer), the plates were incubated for 60 min/37° C. on shaker. Samples (40 μl) were taken at 0, 5, 10, 20, 30 and 60 min, stopped with 3 vol. cold 96% EtOH w. 1% TFA and spun down in plates (4500 rpm for 10 min). Samples were diluted 5 times with the buffer prior to LC-MS analysis. Standard samples (0.1, 0.5, 1.0, 5.0, 10.0 μM) were prepared and treated as the samples. Standard curve was analysed both at the beginning and the end of the sequence. Two replicates of each tested conditions were included. Ion suppression was assessed by analyzing a standard at 1 μM and at 10 μM with 1 mM inhibitor present. Intact insulin or GLP-1 analoues were determined at each sample. The results were plotted against the incubation time. Half-lives of the insulin or GLP-1 analogues were determined by nonlinear regression of the results using, for example Graph Pad Prism. The half-lives were expressed relative to the half-live of the insulin or GLP-1 analogue without inhibitor present by dividing the half-lives obtained in the presence of inhibitor with those obtained in the absence of inhibitors. GI juice was prepared from male Sprague Dawley rats (200-250 g) by excising approximately 20 cm piece of mid jejunum and rinsing the inside with 2.5 ml 0.9% sodium chloride solution. The sodium chloride solution was collected in a centrifuge tube, pooled from all rats (20) and centrifuged at 4500 rpm./10 min/4° C. The supernatant was aliquoted in tubes and stored at −80° C.
Degradation of the N-terminally fatty acid modified peptide or oligopeptide of the invention themselves in jejunum extract from rat (GI juice) and determination of half-lives, was measured as described above (example 200).

The test system of data set [4] is Trypsin. The data set is described as follows: Inhibition of enzymatic degradation of a model GLP-1 (FRET substrate) by trypsin. The conditions noted are these: for Slope of the initial increase in fluorescence obtained during incubation with 0.001 mg/ml Trypsin: compound 1 mM; for EC50: read-out: EC50 Trypsin (0.001 mg/ml), 0.001 mg/ml trypsin, 37° C. The class given is biochemical. The procedure, abridged:
as §1

Data on two compounds can be found in patent US20150038435A1, “N-TERMINALLY MODIFIED OLIGOPEPTIDES AND USES THEREOF” (Novo Nordisk A/S, priority 2012, published 2015).

Non-standard residues stand in square brackets, D forms with d. Residues, ends and D or L forms follow the SMILES beside them. *: point of attachment. Lauroyl = CCCCCCCCCCCC(=O)*

Regarding `CCCCCCCCCCCC(=O)N[C@H](C)C(=O)N[C@H](C)C(=O)N1CCC[C@@H]1C(=O)N[C@H](Cc1ccccc1)C(=O)O` [Example 1, N-dodecanoyl-DAla-DAla-DPro-DPhe-OH] (Lauroyl-[dA][dA][dP][dF]-OH), the “RT (retention time during reverse phase HPLC as a measure of hydrophobicity)” value in data set [1] came out at 6.91 min. Also, in data set [2], the “Slope of the initial increase in fluorescence obtained during incubation with 0.001 mg/ml Chymotrypsin” value came to 0.41 and the EC50 was 476 µM. In addition, the half-life at 1 mM in data set [3] (male, Sprague Dawley, rat GI juice (jejunum extract), pH 6.5) is over 1000 min. Besides, in data set [4], the “Slope of the initial increase in fluorescence obtained during incubation with 0.001 mg/ml Trypsin” value is on record as 0.39 and the EC50 was over 500 µM.

With `CCCCCCCCCCCC(=O)N[C@@H](C)C(=O)N[C@@H](C)C(=O)N1CCC[C@H]1C(=O)N[C@@H](Cc1ccccc1)C(=O)O` [Example 34, N-dodecanoyl-Ala-Ala-Pro-Phe-OH] (Lauroyl-AAPF-OH), in data set [1], the “RT (retention time during reverse phase HPLC as a measure of hydrophobicity)” value is reported as 6.94 min. Further, in data set [2], the “Slope of the initial increase in fluorescence obtained during incubation with 0.001 mg/ml Chymotrypsin” value is 0.07 and the EC50 was found to be 200 ± 26 µM. Moreover, the half-life in data set [3] (GI juice (jejunum extract)) was 3.5 min. Also, in data set [4], the “Slope of the initial increase in fluorescence obtained during incubation with 0.001 mg/ml Trypsin” value is given as 0.31 and the EC50 turned out to be 317 µM.
